Data set [1] addresses T1, IGF1R (Homo sapiens, UniProt P08069).
T1 construct: purchased LeadHunter Discovery Services (currently DiscoverX Corporation), KINOMEscan screening service
The data set is described as follows: KINOMEscan kinase panel, IGF1R. In kind it is binding. The source says:
(§1) Cpd. No. 5 was screened for its activity against a panel of human kinases using the KINOMEscan™ screening platform from LeadHunter Discovery Services (currently DiscoverX Corporation (Fremont, Calif. 94538, United States). See Table 7.

Data set [2] relates to Kappas-299 cells (NPM-ALK). In words: Cell growth inhibition assay (WST-8), Kappas-299. The data set is classed as cell-based. The conditions noted are these: read-out: Kappas-299 (nM) (NPM-ALK), 50% of cell growth inhibition (IC50), WST-8, versus DMSO control. As for the experimental part:
H3122 and Kappas-299 cells were purchased from American Type Culture Collection (Manassas, Va., USA) and were used within 2 months after initiating from original stocks. All cell lines were cultured as recommended. For cell growth inhibition assay, cells were treated with different concentrations of the tested compounds, diluted from stock to culture media containing a 0.2% DMSO as the final concentration. Cell viability was determined using the WST-8 cell proliferation assay kit (Dojindo Molecular Technologies) according to manufacturer's instructions. Three independent experiments in triplicates were performed.
In general terms: Tetrazolium assays rely on reduction of a dye to a coloured formazan, in cell work by metabolically active cells.

Data set [3] can be described thus: Pharmacokinetics in beagle dogs. The data set is classed as in vivo. The conditions noted are these: Table 9 (beagle dogs). Here is the method:
Routine pharmacokinetics studies were performed for Cpd. No. 5 in SD rats and beagle dogs.

The target in data set [4] is T2, LTK (Homo sapiens, UniProt P29376).
T2 construct: purchased LeadHunter Discovery Services (currently DiscoverX Corporation), KINOMEscan screening service
The data set is described as follows: KINOMEscan kinase panel, LTK. In kind it is binding.
From the text: as §1

The subject of data set [5] is Human lymphoma cells, KARPAS 299 xenograft. The data set is described as follows: KARPAS 299 xenograft tumor growth in SCID mice. In kind it is in vivo. The settings on record: given orally, once daily for 3 weeks, FIG. 1. As for the experimental part:
Cpd. Nos. 5 and 6 were dissolved in a solution of 98% PEG200: 2% TPGS (Sigma).
Human lymphoma cells, KARPAS 299 were maintained at 37° C., 95% air, 5% carbon dioxide in RPMI 1640 medium supplemented with 10% Fetal Bovine Serum, 100 units/ml of penicillin and 100 units/ml of streptomycin (GIBCO™, Invitrogen Corp.) and passaged twice weekly.
Tumor cells for xenografts were washed twice in PBS, and re-suspended in an ice cold mixture of 1:1 PBS and Matrigel (BD Biosciences, Invitrogen Corp.) for a final Matrigel protein concentration of 5 mg/ml. Cells at 5×10^6 cells in 0.1 ml were injected subcutaneously (s.c.) into the flank region of each mouse. All tumors were inoculated into SCID mice (strain:236 C.B-17 SCID, Charles River).
The size of tumors growing in the mice was measured in two dimensions using calipers. Tumor volume (mm^3)=(AxB^2)/2 where A and B are the tumor length and width (in mm), respectively. During treatment, tumor volume and body weight were measured three times a week. After the treatment was stopped, tumor volume and body weight was measured at least once a week.
Tumors were not allowed to exceed 10% of the animal's total body weight. If an animal had two or more tumors the total weight of all tumors were not allowed to exceed 10% of the animal's total body weight. […]

Data set [6] concerns the target T3, LRRK2(G2019S) (Homo sapiens, UniProt Q5S007, G2019S).
T3 construct: purchased LeadHunter Discovery Services (currently DiscoverX Corporation), KINOMEscan screening service
In words: KINOMEscan kinase panel, LRRK2(G2019S). In kind it is binding.
From the text: as §1

Data set [7] has as its target T4, ALK S1206Y (Homo sapiens, UniProt Q9UM73, S1206Y).
T4 construct: made in house; host or cells: SF9 insect cells
In words: Mutant ALK kinase inhibition, Lance TR-FRET, S1206Y. The data set is classed as biochemical. The conditions noted are these: Table 5; ATP 100 μM. Here is the method: The cytoplasmic domain (amino acid 1058-1620) of wild-type human ALK protein expressed as N-terminal GST-fusion protein was purchased from Carna Biosciences, Inc (Japan). Mutated ALK proteins were expressed in SF9 insect cells with N-terminal tags cleaved after purification. Kinase activities of all enzymes were assessed using a Lance® TR-FRET assay kit from Perkin Elmer Life Sciences (Waltham, Mass.). 2.5 μL of compound solution and 5 μL of protein solution were added into a black low volume 384 well microtiter plate which was incubated for 30 minutes with gentle shaking at room temperature, followed by adding 2.5 μL of fluorescently labeled peptide substrate (ULight™-IRS-1 (Tyr983) Peptide) and ATP mixture solution. The kinase reaction was performed in 50 mM HEPES (pH 7.5) with 1 mM EGTA, 1 mM MgCl2, and 2 mM DTT, 0.01% Tween-20 added right before the assay. Final concentrations of ATP, substrates, and DMSO were 100 μM, 20 nM, and 0.5%, respectively. […] The final mixture was incubated in the dark for 1 hour before the plate was read on a Tecan Infinite M-1000 multi-mode plate reader (Tecan, Durham N.C.) with an excitation wavelength of 320 nm. Emission intensities were measured at both 620 and 665 nm with the intensity ratio between 665 and 620 nm corresponding to the peptide substrate phosphorylation. […]
A general note: TR-FRET usually uses a lanthanide donor and a delayed reading to cut background.

The target in data set [8] is ALK V1180L (Homo sapiens, UniProt Q9UM73, V1180L). The data set is described as follows: Cell based assay, ALK V1180L. Also on record: key: + = active; −− = inactive. The settings on record: Table 5.
The target of data set [9] is T5, FER (Homo sapiens, UniProt P16591).
T5 construct: purchased LeadHunter Discovery Services (currently DiscoverX Corporation), KINOMEscan screening service
The data set is described as follows: KINOMEscan kinase panel, FER. In kind it is binding.
From the text: as §1

From patent US10709705B2, “Aminopyrimidines as ALK inhibitors” (THE REGENTS OF THE UNIVERSITY OF MICHIGAN, priority 2016, dated 2020) come the findings set out here.

In general, Kd refers to a measure of binding affinity in units of concentration. Usually IC50 stands for the concentration at which inhibition is half-maximal. As a reminder, the MRT inf is the average time that molecules of a dose stay in the body. What is called Tmax is the time from dosing to the highest level.

Where two headings read alike, the source gives them in different places.

Chain of ALK V1180L (Q9UM73 19-1620 V1180L): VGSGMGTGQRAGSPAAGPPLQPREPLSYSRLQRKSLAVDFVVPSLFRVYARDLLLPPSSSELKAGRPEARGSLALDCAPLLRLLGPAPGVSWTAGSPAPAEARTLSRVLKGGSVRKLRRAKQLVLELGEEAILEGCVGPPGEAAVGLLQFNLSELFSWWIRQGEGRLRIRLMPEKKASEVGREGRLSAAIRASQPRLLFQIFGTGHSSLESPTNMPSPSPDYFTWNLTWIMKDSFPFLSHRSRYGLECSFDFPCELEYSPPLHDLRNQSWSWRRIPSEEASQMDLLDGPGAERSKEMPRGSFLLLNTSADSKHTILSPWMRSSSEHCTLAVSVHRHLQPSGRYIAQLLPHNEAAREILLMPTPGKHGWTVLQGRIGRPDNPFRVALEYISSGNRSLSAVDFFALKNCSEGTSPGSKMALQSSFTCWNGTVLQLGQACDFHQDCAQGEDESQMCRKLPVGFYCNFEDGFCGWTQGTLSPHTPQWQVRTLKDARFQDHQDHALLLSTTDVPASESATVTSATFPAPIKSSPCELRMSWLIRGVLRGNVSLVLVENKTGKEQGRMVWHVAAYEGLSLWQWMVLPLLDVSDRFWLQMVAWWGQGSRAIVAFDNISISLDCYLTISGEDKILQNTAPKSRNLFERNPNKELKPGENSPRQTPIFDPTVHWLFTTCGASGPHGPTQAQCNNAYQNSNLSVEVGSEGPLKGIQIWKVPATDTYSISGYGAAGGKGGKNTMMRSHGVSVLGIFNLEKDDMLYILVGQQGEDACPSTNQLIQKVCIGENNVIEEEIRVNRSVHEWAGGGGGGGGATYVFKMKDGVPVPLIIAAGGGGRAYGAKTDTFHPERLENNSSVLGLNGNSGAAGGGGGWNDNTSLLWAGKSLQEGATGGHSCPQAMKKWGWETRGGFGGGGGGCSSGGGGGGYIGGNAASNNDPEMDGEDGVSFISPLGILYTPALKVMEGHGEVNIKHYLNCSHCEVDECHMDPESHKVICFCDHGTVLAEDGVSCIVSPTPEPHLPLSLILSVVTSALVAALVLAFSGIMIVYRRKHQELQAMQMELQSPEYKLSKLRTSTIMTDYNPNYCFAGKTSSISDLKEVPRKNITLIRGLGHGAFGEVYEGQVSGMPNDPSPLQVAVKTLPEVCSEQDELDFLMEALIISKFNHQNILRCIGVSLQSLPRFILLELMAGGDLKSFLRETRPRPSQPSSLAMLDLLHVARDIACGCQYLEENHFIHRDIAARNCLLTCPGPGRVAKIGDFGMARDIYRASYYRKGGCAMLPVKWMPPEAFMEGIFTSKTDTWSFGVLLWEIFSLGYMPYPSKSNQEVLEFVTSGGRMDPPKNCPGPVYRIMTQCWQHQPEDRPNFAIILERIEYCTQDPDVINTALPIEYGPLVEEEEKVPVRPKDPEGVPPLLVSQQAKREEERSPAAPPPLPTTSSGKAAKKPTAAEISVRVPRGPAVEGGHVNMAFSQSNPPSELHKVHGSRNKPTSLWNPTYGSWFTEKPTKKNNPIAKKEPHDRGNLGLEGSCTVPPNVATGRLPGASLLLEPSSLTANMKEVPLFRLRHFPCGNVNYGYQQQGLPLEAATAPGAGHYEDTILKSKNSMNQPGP
T1 sequence (P08069 31-1367): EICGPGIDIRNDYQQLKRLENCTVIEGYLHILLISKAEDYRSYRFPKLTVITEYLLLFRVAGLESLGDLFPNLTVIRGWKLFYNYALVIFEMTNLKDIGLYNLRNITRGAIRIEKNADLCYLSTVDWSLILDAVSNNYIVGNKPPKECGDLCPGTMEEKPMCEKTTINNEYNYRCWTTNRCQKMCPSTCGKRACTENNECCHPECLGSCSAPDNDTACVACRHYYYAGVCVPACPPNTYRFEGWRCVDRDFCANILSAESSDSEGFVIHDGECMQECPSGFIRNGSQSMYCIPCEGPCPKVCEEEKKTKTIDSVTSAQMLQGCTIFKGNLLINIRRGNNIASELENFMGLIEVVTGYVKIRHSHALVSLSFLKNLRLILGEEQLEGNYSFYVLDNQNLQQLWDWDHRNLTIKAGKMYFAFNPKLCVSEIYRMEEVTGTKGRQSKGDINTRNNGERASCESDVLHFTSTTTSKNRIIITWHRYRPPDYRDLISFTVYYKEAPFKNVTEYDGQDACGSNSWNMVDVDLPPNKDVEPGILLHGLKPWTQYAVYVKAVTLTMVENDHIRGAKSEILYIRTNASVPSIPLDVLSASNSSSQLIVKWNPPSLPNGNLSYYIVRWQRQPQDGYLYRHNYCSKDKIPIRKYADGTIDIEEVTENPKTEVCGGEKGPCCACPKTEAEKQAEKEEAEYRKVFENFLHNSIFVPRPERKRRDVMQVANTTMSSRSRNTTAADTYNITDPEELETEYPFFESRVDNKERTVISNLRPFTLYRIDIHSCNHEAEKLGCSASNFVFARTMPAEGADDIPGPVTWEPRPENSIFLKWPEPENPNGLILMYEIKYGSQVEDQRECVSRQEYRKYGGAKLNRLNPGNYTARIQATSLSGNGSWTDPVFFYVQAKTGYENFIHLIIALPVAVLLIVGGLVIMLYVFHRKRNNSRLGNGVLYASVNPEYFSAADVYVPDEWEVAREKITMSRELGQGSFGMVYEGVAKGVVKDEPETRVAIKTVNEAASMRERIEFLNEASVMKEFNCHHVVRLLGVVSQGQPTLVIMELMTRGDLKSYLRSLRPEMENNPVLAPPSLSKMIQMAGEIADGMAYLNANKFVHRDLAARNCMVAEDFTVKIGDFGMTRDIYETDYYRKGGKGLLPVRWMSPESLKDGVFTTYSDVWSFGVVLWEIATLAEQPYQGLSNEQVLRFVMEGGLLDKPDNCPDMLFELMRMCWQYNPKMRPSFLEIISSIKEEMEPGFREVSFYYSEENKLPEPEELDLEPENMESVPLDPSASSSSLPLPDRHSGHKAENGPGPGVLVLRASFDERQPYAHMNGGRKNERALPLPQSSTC
T5 sequence (P16591 whole entry): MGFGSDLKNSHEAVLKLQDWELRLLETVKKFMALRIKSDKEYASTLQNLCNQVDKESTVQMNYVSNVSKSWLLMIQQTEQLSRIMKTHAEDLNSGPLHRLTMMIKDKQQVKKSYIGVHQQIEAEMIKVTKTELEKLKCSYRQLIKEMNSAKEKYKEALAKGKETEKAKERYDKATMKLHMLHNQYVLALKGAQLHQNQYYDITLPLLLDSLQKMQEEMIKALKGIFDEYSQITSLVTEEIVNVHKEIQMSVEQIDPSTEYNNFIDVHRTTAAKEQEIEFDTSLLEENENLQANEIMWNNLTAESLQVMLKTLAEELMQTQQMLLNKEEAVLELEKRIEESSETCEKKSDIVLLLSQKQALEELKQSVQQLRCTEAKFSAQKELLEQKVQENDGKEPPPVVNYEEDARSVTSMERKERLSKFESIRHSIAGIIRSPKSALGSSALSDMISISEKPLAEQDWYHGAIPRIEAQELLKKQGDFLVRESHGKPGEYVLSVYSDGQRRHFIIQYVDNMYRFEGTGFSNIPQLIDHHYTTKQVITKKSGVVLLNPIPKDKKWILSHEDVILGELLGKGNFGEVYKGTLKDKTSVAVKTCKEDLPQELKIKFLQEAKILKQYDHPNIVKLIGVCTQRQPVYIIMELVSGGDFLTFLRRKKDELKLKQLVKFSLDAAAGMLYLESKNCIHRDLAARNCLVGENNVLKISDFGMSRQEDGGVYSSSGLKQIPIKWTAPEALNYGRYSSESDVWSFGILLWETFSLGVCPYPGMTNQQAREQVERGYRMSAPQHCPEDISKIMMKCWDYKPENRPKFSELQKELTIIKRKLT
T4 sequence (Q9UM73 19-1620 S1206Y): as the sequence (Q9UM73 19-1620 V1180L) above, with L1162V, S1188Y counted along it
T2 sequence (P29376 17-864): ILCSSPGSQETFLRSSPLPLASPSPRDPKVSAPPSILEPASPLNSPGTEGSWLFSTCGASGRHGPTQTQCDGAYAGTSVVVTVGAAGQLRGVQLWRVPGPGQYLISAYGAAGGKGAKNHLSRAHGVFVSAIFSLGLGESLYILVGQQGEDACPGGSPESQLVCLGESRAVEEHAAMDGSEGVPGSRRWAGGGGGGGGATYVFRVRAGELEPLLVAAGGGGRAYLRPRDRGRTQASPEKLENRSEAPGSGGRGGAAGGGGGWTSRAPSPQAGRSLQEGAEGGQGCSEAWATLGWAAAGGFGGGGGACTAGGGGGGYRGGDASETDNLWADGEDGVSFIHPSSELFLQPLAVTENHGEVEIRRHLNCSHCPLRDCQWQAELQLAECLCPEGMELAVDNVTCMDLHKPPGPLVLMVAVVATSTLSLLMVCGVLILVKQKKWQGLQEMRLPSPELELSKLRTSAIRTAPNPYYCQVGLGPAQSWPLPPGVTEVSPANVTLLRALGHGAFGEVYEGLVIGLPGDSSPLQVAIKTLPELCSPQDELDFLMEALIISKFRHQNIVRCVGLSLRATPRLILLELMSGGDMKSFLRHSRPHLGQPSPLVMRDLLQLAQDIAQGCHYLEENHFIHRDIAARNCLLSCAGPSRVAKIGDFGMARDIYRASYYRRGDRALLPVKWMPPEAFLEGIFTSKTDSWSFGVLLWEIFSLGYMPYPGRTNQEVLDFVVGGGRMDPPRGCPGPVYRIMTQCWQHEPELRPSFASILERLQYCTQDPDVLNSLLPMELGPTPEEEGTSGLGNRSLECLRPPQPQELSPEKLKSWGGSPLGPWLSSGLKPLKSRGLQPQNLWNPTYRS

Take `Cc1cc(Nc2ncc(Cl)c(Nc3ccccc3S(=O)(=O)C(C)C)n2)c(OC(C)C)cc1C1=CCN(C2CCOCC2)CC1` [Cpd. No. 5, 5-chloro-N2-(2-isopropoxy-5-methyl-4-(1-(tetrahydro-2H-pyran-4-yl)-1,2,3,6-tetrahydropyridin-4-yl)phenyl)-N4-(2-(isopropylsulfonyl)phenyl)pyrimidine-2,4-diamine]: the dissociation constant Kd was determined as 9 nM in [1], 0.62 nM in [4], 6.6 nM in data set [6] and 11 nM in [9]. Moreover, the half-inhibitory concentration (IC50) in data set [2] was 13 nM; in [7], 1.3 nM. For the same compound, in [3] (PO 5 mg/kg vs IV 1 mg/kg), the “F(AUC0-t)” value stood at 33.3%. Besides, the MRT inf in data set [3] (dog, in vivo, IV 1 mg/kg) amounted to 22.1 h. Further, the AUC(0-t) in [3] (dog, in vivo, IV 1 mg/kg, read-out: AUC0-t (ng · h/mL) IV) is 1820 ng·h/mL; in data set [3] (dog, in vivo, PO 5 mg/kg, read-out: AUC0-t (ng · h/mL) PO) it was 2930 ng·h/mL. Further, the AUC(0-inf) in [3] (dog, in vivo, IV 1 mg/kg, read-out: AUC0-∞ (ng · h/mL) IV) turned out to be 2140 ng·h/mL; in data set [3] (dog, in vivo, PO 5 mg/kg, read-out: AUC0-∞ (ng · h/mL) PO) it was 3710 ng·h/mL. Besides, the clearance in data set [3] (dog, in vivo, IV 1 mg/kg, read-out: CL (iv) (converted)) was 8.1 mL/min/kg. For the same compound, the Cmax in data set [3] (dog, in vivo, IV 1 mg/kg, read-out: Cmax(ng/mL) IV) was 314 ng/mL; in data set [3] (dog, in vivo, PO 5 mg/kg, read-out: Cmax(ng/mL) PO) it was 239 ng/mL. The Tmax in [3] (dog, in vivo, IV 1 mg/kg, read-out: Tmax (h) IV) stood at 0.083 h; in data set [3] (dog, in vivo, PO 5 mg/kg, read-out: Tmax (h) PO), 1.67 h. In addition, the Vd in data set [3] (dog, in vivo, IV 1 mg/kg, read-out: Vss (iv)) amounted to 10.8 L/kg. The half-life in data set [3] (dog, in vivo, IV 1 mg/kg, read-out: t1/2 (h) IV (converted)) is 19.7 h; in data set [3] (dog, in vivo, PO 5 mg/kg, read-out: t1/2 (h) PO (converted)), 20 h. Besides, the “tumor growth in the KARPAS 299 xenograph model” value in data set [5] is “inhibit tumor growth”. In addition, in [8], the “V1180L (c)” value is listed as “+ (c)”.
